Reference: PubChem BioAssay (NCI)
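Five compound concentrations were applied to cells in 96-well plates for 48 hours; endpoints were derived by simple linear interpolation of the resulting dose-response curve. At the GI50, growth is halved. TGI denotes the concentration required for complete inhibition of growth.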

Key:
Assay in all cases: NCI anticancer screen, dose series, 48 h
[1] = system: CCRF-CEM leukemia
[2] = system: IGROV1 ovarian
[3] = system: MDA-MB-435
[4] = system: NCI/ADR-RES ovarian
[5] = system: SF-539 CNS
[6] = system: SNB-19 CNS
[7] = system: SNB-75 CNS
[8] = system: TK-10 renal

Structure (SMILES) | TGI [1] | TGI [2] | TGI [3] | TGI [4] | TGI [5] | TGI [6] | TGI [7] | TGI [8] | GI50 [1] | GI50 [2] | GI50 [3] | GI50 [4] | GI50 [5] | GI50 [6] | GI50 [7] | GI50 [8]
COc1cccc(N/C(C)=C2/CCOC2=O)c1 | > 10 µM | > 10 µM | > 10 µM | > 10 µM | > 10 µM | > 10 µM | > 10 µM | > 10 µM |  |  |  |  |  |  |  | 
Cc1cc(C)cc(Nc2nnc3n2S(=O)(=O)c2cc(C)c(Cl)cc2S3)c1 | > 100 µM | 80.6 µM | 91.2 µM | 9.26 µM | 13.7 µM | 49.3 µM | > 100 µM | 38.5 µM |  |  |  |  |  |  |  | 
COC(=O)[C@H](CNC(=O)/C=C/c1ccc(OC(C)=O)c(OC(C)=O)c1)NC(=O)/C=C/c1ccc(OC(C)=O)c(OC(C)=O)c1 | > 100 µM | > 100 µM | > 100 µM | > 100 µM | > 100 µM | > 100 µM | > 100 µM |  |  |  |  |  |  |  |  | 
COc1ccc(C=Nc2ccc(-c3nc4ccccc4s3)cc2)cc1OC | 55 µM | 86.4 µM | > 100 µM | 89.8 µM | > 100 µM | > 100 µM | 75.7 µM | 69 µM |  |  |  |  |  |  |  | 
NC(Cc1ccc(O)cn1)C(=O)NC(C(=O)O)c1ccccc1 (stereo not drawn) | > 100 µM | > 100 µM | > 100 µM | > 100 µM | > 100 µM | > 100 µM | > 100 µM | > 100 µM |  |  |  |  |  |  |  | 
COc1ccc2c(c1)CC[C@@H]1[C@@H]2CC[C@]2(C)/C(=N/OCCN3CCCC3)CC[C@@H]12 | 3.67 µM | 18.4 µM | 2.43 µM | 28.7 µM | 3.92 µM | 28.1 µM | 9.49 µM | 16.9 µM |  |  |  |  |  |  |  | 
Cn1c(N/N=C/c2ccccc2)nc(-c2ccc3c(c2)OCO3)c(C#N)c1=O | > 100 µM | > 100 µM | > 100 µM | > 100 µM | > 100 µM | > 100 µM | > 100 µM | > 100 µM |  |  |  |  |  |  |  | 
C/C=C1\CC(C(=O)OCC)CCCCCCC1=O (stereo not drawn) | > 100 µM | > 100 µM | > 100 µM | > 100 µM | > 100 µM | > 100 µM | > 100 µM | > 100 µM |  |  |  |  |  |  |  | 
CC12NC(=C(C#N)C#N)C(C#N)=C3NC(N)=C(C#N)C(=C31)Oc1ccccc12 (stereo not drawn) | > 100 µM | > 100 µM | > 100 µM | > 100 µM | > 88.6 µM | > 100 µM | > 100 µM | > 100 µM |  |  |  |  |  |  |  | 
C[C@@H]1C[C@H]2OC(=O)[C@@]3(C)CCC[C@@](C)([C@@H]23)[C@@]1(O)CCc1ccoc1 | > 100 µM | > 100 µM | > 100 µM | > 100 µM | > 100 µM | > 100 µM | > 100 µM | > 100 µM |  |  |  |  |  |  |  | 
COC(=O)C1OC(O[C@H]2CC[C@]3(C)[C@H]4CC=C5[C@@H]6CC(C)(C)CC[C@]6(C(=O)OC)CC[C@@]5(C)[C@]4(C)CC[C@H]3C2(C)C)C(O)C(O)C1O (stereo partly drawn) | 23.2 µM | 37.4 µM | 30 µM | 36.1 µM |  | 31.1 µM | 31.1 µM |  |  |  |  |  |  |  |  | 
Cc1ccc(S(=O)(=O)N(CC(O)COc2ccccc2)c2c(F)c(F)cc(F)c2F)cc1 (stereo not drawn) | 93.6 µM |  | 36.5 µM | 42 µM | 36 µM | 82.1 µM | 42.6 µM | 84.1 µM |  |  |  |  |  |  |  | 
C1=N[C@]23C(=N[C@H](N=C2NCc2ccco2)[C@]24N=CNC2=N[C@H]3N=C4NCc2ccco2)N1 | > 100 µM | > 100 µM | > 100 µM | > 100 µM | > 100 µM | > 100 µM | > 100 µM | > 100 µM | > 100 µM | > 100 µM | > 100 µM | > 100 µM | > 100 µM | > 100 µM | 67.1 µM | > 100 µM
COc1cc(C2CC(C)(N3CCOCC3)Oc3cc4c(cc32)OCO4)cc(OC)c1OC (stereo not drawn) |  | > 35.9 µM | > 100 µM | > 100 µM |  | > 100 µM |  |  |  |  |  |  |  |  |  | 
c1ccc(CN2CCC(=NN3CCCCC3)CC2)cc1 | > 100 µM | > 100 µM | > 100 µM | > 100 µM | > 100 µM | > 100 µM | > 100 µM | > 100 µM |  |  |  |  |  |  |  | 
CCOC(=O)Cc1c(C)c2ccc(OC(C)=O)c(OC(C)=O)c2oc1=O | 28.5 µM | 44.3 µM | > 100 µM | 58.4 µM |  | > 100 µM | 88.6 µM | 65.2 µM |  |  |  |  |  |  |  | 
O=C(O)c1cc2ccccc2c(Cc2c(O)c(C(=O)O)cc3ccccc23)c1O | > 100 µM | > 100 µM | > 100 µM | > 100 µM |  | > 100 µM |  | > 100 µM |  |  |  |  |  |  |  | 
Clc1ccc(Nc2ncco2)cc1Cl | > 10 µM | > 10 µM | > 10 µM | > 10 µM | > 10 µM | > 10 µM | > 10 µM | > 10 µM |  |  |  |  |  |  |  | 
CC1=C(C(=O)NNC(=O)Cc2ccccc2)CC(C(=O)NNC(=O)Cc2ccccc2)=C(C)N1 |  | > 100 µM | > 100 µM | > 100 µM | > 100 µM | > 100 µM | > 100 µM | > 100 µM |  |  |  |  |  |  |  | 
CC(NC(=O)Cc1ccc(OP(=O)(OCc2ccc([N+](=O)[O-])o2)N(C)CCCCCl)cc1)c1ccc(OCC2CCCCC2)c(C(N)=O)c1 (stereo not drawn) | 6.14 µM | 4.76 µM | 3.95 µM | 94.3 µM | 4.09 µM | 22.1 µM |  | 15.6 µM |  |  |  |  |  |  |  | 
CON(C)c1nc(N)c(C#N)c(C#N)c1C#N | > 10 µM | > 10 µM | > 10 µM | > 10 µM | > 10 µM | > 10 µM | > 10 µM | > 10 µM |  |  |  |  |  |  |  | 
CCCNC1=C2C[C@@H](C)C[C@@H](OC)[C@@H](OC(=O)CCCN)[C@H](C)/C=C(\C)[C@@H](OC(N)=O)[C@H](OC)/C=C\C=C(/C)C(=O)NC(=CC1=O)C2=O | 6.8 µM | 34.8 µM | 32.2 µM | 86.2 µM | 39.9 µM | 29.7 µM |  | 36.1 µM |  |  |  |  |  |  |  | 
CN(C)c1ccc(/C=C/C(=O)c2cc(C(C)(C)C)c(O)c(C(C)(C)C)c2)cc1 | > 25.7 µM | > 100 µM | 1.87 µM | 6.64 µM | 1.8 µM | > 100 µM | 0.856 µM | > 43.1 µM |  |  |  |  |  |  |  | 
